{"source": "patent US12473250B2", "about": "“Molecular design of new antibiotics and antibiotic adjuvants against MCR strains” (priority 2019, dated 2025)", "tested_on": "various pathogens", "experiment": "organism not typed", "type": "cell-based", "procedure": "The MICs of the individual drugs and LC compound in combinations were determined using the broth microdilution technique as recommended by the CLSI whereby the two anti-microbial agents were added in an equal amount. (e.g.: 50 μL of Colistin: 50 μL of LC compounds). Diluted media containing compounds and antibiotics will be serially diluted 2-fold, and LC compounds and antibiotics alone or in combination will be assayed at fixed synergy concentration. In all cases, the lowest concentration at which no visible growth occurred was be recorded to be the MIC value of individual and combined antibacterial agents. The results were obtained after 24 hours of incubation.\nUsing the combination of LC100 and colistin, the activity of a broad range of strains was further tested (Table 7).", "key": {"[1]": {"conditions": "6093560257 [MCR 1+, E. Coli, NDM-1]"}, "[2]": {"conditions": "7103531927 [MCR 1+, E. Coli, KPC+]"}, "[3]": {"conditions": "7113636863 [MCR 1+, E. Coli, NDM-1]"}}, "data": [{"substance": "Colistin", "values": [{"measurement": "FOLD CHANGES [Absorbance (abs; OD 600 nm)] No Treatment [Bacteria alone]: Colistin 0.5 μg", "setting": "6083655967 [MCR 1+, E. Coli]", "value": 1.10}, {"measurement": "FOLD CHANGES [Absorbance (abs; OD 600 nm)] No Treatment [Bacteria alone]: MIC Colistin", "setting": "6083655967 [MCR 1+, E. Coli]", "value": 19.59}, {"measurement": "MIC", "setting": "6083655967 [MCR 1+, E. Coli]", "value": 6.25, "unit": "mg/L"}, {"measurement": "FOLD CHANGES [Absorbance (abs; OD 600 nm)] No Treatment [Bacteria alone]: Colistin 0.5 μg", "setting": "[1]", "value": 1.14}, {"measurement": "FOLD CHANGES [Absorbance (abs; OD 600 nm)] No Treatment [Bacteria alone]: MIC Colistin", "setting": "[1]", "value": 21.59}, {"measurement": "MIC", "setting": "[1]", "value": 6.25, "unit": "mg/L"}, {"measurement": "FOLD CHANGES [Absorbance (abs; OD 600 nm)] No Treatment [Bacteria alone]: Colistin 0.5 μg", "setting": "6123520276 [MCR 1+, E. Coli]", "value": 1.04}, {"measurement": "FOLD CHANGES [Absorbance (abs; OD 600 nm)] No Treatment [Bacteria alone]: MIC Colistin", "setting": "6123520276 [MCR 1+, E. Coli]", "value": 20.10}, {"measurement": "MIC", "setting": "6123520276 [MCR 1+, E. Coli]", "value": 6.25, "unit": "mg/L"}, {"measurement": "FOLD CHANGES [Absorbance (abs; OD 600 nm)] No Treatment [Bacteria alone]: Colistin 0.5 μg", "setting": "7023436560 [MCR 1+, E. Coli]", "value": 1.14}, {"measurement": "FOLD CHANGES [Absorbance (abs; OD 600 nm)] No Treatment [Bacteria alone]: MIC Colistin", "setting": "7023436560 [MCR 1+, E. Coli]", "value": 18.70}, {"measurement": "MIC", "setting": "7023436560 [MCR 1+, E. Coli]", "value": 6.25, "unit": "mg/L"}, {"measurement": "FOLD CHANGES [Absorbance (abs; OD 600 nm)] No Treatment [Bacteria alone]: Colistin 0.5 μg", "setting": "7023444207 [MCR 1+, E. Coli]", "value": 1.10}, {"measurement": "FOLD CHANGES [Absorbance (abs; OD 600 nm)] No Treatment [Bacteria alone]: MIC Colistin", "setting": "7023444207 [MCR 1+, E. Coli]", "value": 17.44}, {"measurement": "MIC", "setting": "7023444207 [MCR 1+, E. Coli]", "value": 6.25, "unit": "mg/L"}, {"measurement": "FOLD CHANGES [Absorbance (abs; OD 600 nm)] No Treatment [Bacteria alone]: Colistin 0.5 μg", "setting": "7023446108 [MCR 1−, E. Coli]", "value": 1.15}, {"measurement": "FOLD CHANGES [Absorbance (abs; OD 600 nm)] No Treatment [Bacteria alone]: MIC Colistin", "setting": "7023446108 [MCR 1−, E. Coli]", "value": 18.04}, {"measurement": "MIC", "setting": "7023446108 [MCR 1−, E. Coli]", "value": 6.25, "unit": "mg/L"}, {"measurement": "FOLD CHANGES [Absorbance (abs; OD 600 nm)] No Treatment [Bacteria alone]: Colistin 0.5 μg", "setting": "7033607097 [MCR 1−, E. Coli]", "value": 1.35}, {"measurement": "FOLD CHANGES [Absorbance (abs; OD 600 nm)] No Treatment [Bacteria alone]: MIC Colistin", "setting": "7033607097 [MCR 1−, E. Coli]", "value": 15.21}, {"measurement": "MIC", "setting": "7033607097 [MCR 1−, E. Coli]", "value": 6.25, "unit": "mg/L"}, {"measurement": "FOLD CHANGES [Absorbance (abs; OD 600 nm)] No Treatment [Bacteria alone]: Colistin 0.5 μg", "setting": "[2]", "value": 1.06}, {"measurement": "FOLD CHANGES [Absorbance (abs; OD 600 nm)] No Treatment [Bacteria alone]: MIC Colistin", "setting": "[2]", "value": 17.67}, {"measurement": "MIC", "setting": "[2]", "value": 6.25, "unit": "mg/L"}, {"measurement": "FOLD CHANGES [Absorbance (abs; OD 600 nm)] No Treatment [Bacteria alone]: Colistin 0.5 μg", "setting": "[3]", "value": 1.06}, {"measurement": "FOLD CHANGES [Absorbance (abs; OD 600 nm)] No Treatment [Bacteria alone]: MIC Colistin", "setting": "[3]", "value": 16.97}, {"measurement": "MIC", "setting": "[3]", "value": 6.25, "unit": "mg/L"}, {"measurement": "FOLD CHANGES [Absorbance (abs; OD 600 nm)] No Treatment [Bacteria alone]: Colistin 0.5 μg", "setting": "ACBA 1003 (CI)", "value": 1.26}, {"measurement": "FOLD CHANGES [Absorbance (abs; OD 600 nm)] No Treatment [Bacteria alone]: MIC Colistin", "setting": "ACBA 1003 (CI)", "value": 12.60}, {"measurement": "MIC", "setting": "ACBA 1003 (CI)", "value": 1.56, "unit": "mg/L"}, {"measurement": "FOLD CHANGES [Absorbance (abs; OD 600 nm)] No Treatment [Bacteria alone]: Colistin 0.5 μg", "setting": "ACBA 1004 (CI)", "value": 1.09}, {"measurement": "FOLD CHANGES [Absorbance (abs; OD 600 nm)] No Treatment [Bacteria alone]: MIC Colistin", "setting": "ACBA 1004 (CI)", "value": 23.71}, {"measurement": "MIC", "setting": "ACBA 1004 (CI)", "value": 1.56, "unit": "mg/L"}, {"measurement": "FOLD CHANGES [Absorbance (abs; OD 600 nm)] No Treatment [Bacteria alone]: Colistin 0.5 μg", "setting": "ACBA 1005 (CI)", "value": 1.02}, {"measurement": "FOLD CHANGES [Absorbance (abs; OD 600 nm)] No Treatment [Bacteria alone]: MIC Colistin", "setting": "ACBA 1005 (CI)", "value": 22.34}, {"measurement": "MIC", "setting": "ACBA 1005 (CI)", "value": 1.56, "unit": "mg/L"}, {"measurement": "FOLD CHANGES [Absorbance (abs; OD 600 nm)] No Treatment [Bacteria alone]: Colistin 0.5 μg", "setting": "ACBA 1006 (CI)", "value": 1.12}, {"measurement": "FOLD CHANGES [Absorbance (abs; OD 600 nm)] No Treatment [Bacteria alone]: MIC Colistin", "setting": "ACBA 1006 (CI)", "value": 23.81}, {"measurement": "MIC", "setting": "ACBA 1006 (CI)", "value": 1.56, "unit": "mg/L"}, {"measurement": "FOLD CHANGES [Absorbance (abs; OD 600 nm)] No Treatment [Bacteria alone]: Colistin 0.5 μg", "setting": "ACBA 1010 (CI)", "value": 1.13}, {"measurement": "FOLD CHANGES [Absorbance (abs; OD 600 nm)] No Treatment [Bacteria alone]: MIC Colistin", "setting": "ACBA 1010 (CI)", "value": 21.43}, {"measurement": "MIC", "setting": "ACBA 1010 (CI)", "value": 0.39, "unit": "mg/L"}, {"measurement": "FOLD CHANGES [Absorbance (abs; OD 600 nm)] No Treatment [Bacteria alone]: Colistin 0.5 μg", "setting": "ACBA ATCC 19606", "value": 2.04}, {"measurement": "FOLD CHANGES [Absorbance (abs; OD 600 nm)] No Treatment [Bacteria alone]: MIC Colistin", "setting": "ACBA ATCC 19606", "value": 16.14}, {"measurement": "MIC", "setting": "ACBA ATCC 19606", "value": 0.78, "unit": "mg/L"}, {"measurement": "FOLD CHANGES [Absorbance (abs; OD 600 nm)] No Treatment [Bacteria alone]: Colistin 0.5 μg", "setting": "ACBA DR 43357", "value": 1.06}, {"measurement": "FOLD CHANGES [Absorbance (abs; OD 600 nm)] No Treatment [Bacteria alone]: MIC Colistin", "setting": "ACBA DR 43357", "value": 25.47}, {"measurement": "MIC", "setting": "ACBA DR 43357", "value": 1.56, "unit": "mg/L"}, {"measurement": "FOLD CHANGES [Absorbance (abs; OD 600 nm)] No Treatment [Bacteria alone]: Colistin 0.5 μg", "setting": "E. Coli ATCC 8739", "value": 1.85}, {"measurement": "FOLD CHANGES [Absorbance (abs; OD 600 nm)] No Treatment [Bacteria alone]: MIC Colistin", "setting": "E. Coli ATCC 8739", "value": 20.68}, {"measurement": "MIC", "setting": "E. Coli ATCC 8739", "value": 0.78, "unit": "mg/L"}, {"measurement": "FOLD CHANGES [Absorbance (abs; OD 600 nm)] No Treatment [Bacteria alone]: Colistin 0.5 μg", "setting": "E. Coli ATCC 10536", "value": 1.11}, {"measurement": "FOLD CHANGES [Absorbance (abs; OD 600 nm)] No Treatment [Bacteria alone]: MIC Colistin", "setting": "E. Coli ATCC 10536", "value": 18.42}, {"measurement": "MIC", "setting": "E. Coli ATCC 10536", "value": 0.78, "unit": "mg/L"}, {"measurement": "FOLD CHANGES [Absorbance (abs; OD 600 nm)] No Treatment [Bacteria alone]: Colistin 0.5 μg", "setting": "E. Coli ATCC 25922", "value": 1.23}, {"measurement": "FOLD CHANGES [Absorbance (abs; OD 600 nm)] No Treatment [Bacteria alone]: MIC Colistin", "setting": "E. Coli ATCC 25922", "value": 18.24}, {"measurement": "MIC", "setting": "E. Coli ATCC 25922", "value": 0.78, "unit": "mg/L"}, {"measurement": "FOLD CHANGES [Absorbance (abs; OD 600 nm)] No Treatment [Bacteria alone]: Colistin 0.5 μg", "setting": "E. Coli ATCC 35218", "value": 1.31}, {"measurement": "FOLD CHANGES [Absorbance (abs; OD 600 nm)] No Treatment [Bacteria alone]: MIC Colistin", "setting": "E. Coli ATCC 35218", "value": 24.46}, {"measurement": "MIC", "setting": "E. Coli ATCC 35218", "value": 0.78, "unit": "mg/L"}, {"measurement": "FOLD CHANGES [Absorbance (abs; OD 600 nm)] No Treatment [Bacteria alone]: Colistin 0.5 μg", "setting": "E. Coli CRE 11804", "value": 1.19}, {"measurement": "FOLD CHANGES [Absorbance (abs; OD 600 nm)] No Treatment [Bacteria alone]: MIC Colistin", "setting": "E. Coli CRE 11804", "value": 17.29}, {"measurement": "MIC", "setting": "E. Coli CRE 11804", "value": 0.78, "unit": "mg/L"}, {"measurement": "FOLD CHANGES [Absorbance (abs; OD 600 nm)] No Treatment [Bacteria alone]: Colistin 0.5 μg", "setting": "E. Coli CRE 17232", "value": 1.31}, {"measurement": "FOLD CHANGES [Absorbance (abs; OD 600 nm)] No Treatment [Bacteria alone]: MIC Colistin", "setting": "E. Coli CRE 17232", "value": 16.09}, {"measurement": "MIC", "setting": "E. Coli CRE 17232", "value": 0.78, "unit": "mg/L"}, {"measurement": "FOLD CHANGES [Absorbance (abs; OD 600 nm)] No Treatment [Bacteria alone]: Colistin 0.5 μg", "setting": "E. Coli CRE 17528", "value": 1.45}, {"measurement": "FOLD CHANGES [Absorbance (abs; OD 600 nm)] No Treatment [Bacteria alone]: MIC Colistin", "setting": "E. Coli CRE 17528", "value": 20.21}, {"measurement": "MIC", "setting": "E. Coli CRE 17528", "value": 0.78, "unit": "mg/L"}, {"measurement": "FOLD CHANGES [Absorbance (abs; OD 600 nm)] No Treatment [Bacteria alone]: Colistin 0.5 μg", "setting": "E. Coli CRE 19211", "value": 1.17}, {"measurement": "FOLD CHANGES [Absorbance (abs; OD 600 nm)] No Treatment [Bacteria alone]: MIC Colistin", "setting": "E. Coli CRE 19211", "value": 20.56}]}]}
